“Also recorded” adds a separate entry of the source.

The results in this text go back to patent US12054526B2, “Polypeptides, nucleic acid molecules, compositions, and related methods” (CHILDREN'S HOSPITAL MEDICAL CENTER, priority 2018, dated 2024).

Assay [1] relates to Myomerger^−/− C2C12 myoblasts. The assay is described as follows: Synchronized fusion assay (LPC), Myomerger^−/− C2C12. It is filed as cell-based. The settings on record: 50 μM CPZ 60 seconds at LPC removal, assayed after 30 minutes. The source says:
(§1) We uncoupled the myoblast fusion stage of myogenic differentiation from the stages that prepare the cells for fusion using a fusion-synchronization approach described previously (GAMAGE et al. (2017) “Insights into the localization and function of myomaker during myoblast fusion” J Biol Chem, Vol. 292, pp. 17272-17289, which is herein incorporated by reference in its entirety; LEIKINA et al. (2013) “Extracellular annexins and dynamin are important for sequential steps in myoblast fusion” J Cell Biol, Vol. 200, pp. 109-123, which is herein incorporated by reference in its entirety). In brief, fusion-committed myoblasts were placed into complete medium supplemented with 150 μM lauroyl LPC (#855475P, Avanti Polar Lipids). 16 h later we washed the cells three times with LPC-free complete medium. […]
(§2) We labeled C2C12 cells 48 hours after placement in the differentiation medium, and co-plated differently labeled cells in a 1-to-1 ratio. […] Fusion was scored 30 min after LPC removal and thus […] after placing the cells into differentiation medium. […] We kept the cells in LPC-supplemented differentiation medium for 16 hours, washed out LPC with LPC-free medium and 30 minutes later (˜24 hours after placing the cells into differentiation medium) scored fusion. […]

Another assay has as its system Myomaker^−/− C2C12 cells. The assay is described as follows: Synchronized fusion assay (LPC), Myomaker^−/− C2C12. It is filed as cell-based. The note with it: 50 μM CPZ 60 seconds at LPC removal, assayed after 30 minutes.
Another assay has as its system WT C2C12 myoblasts. The assay is described as follows: Synchronized fusion assay (LPC), WT C2C12. The note with it: 50 μM CPZ 60 seconds at LPC removal, assayed after 30 minutes. The assay is classed as cell-based.
From the text: as §1, §2

The test system of another assay is C2C12 myoblasts. Kind of assay: Myoblast fusion assay, WT myoblasts. It is filed as cell-based. From the text:
(§3) To specifically characterize different steps in fusion, we used 3 distinct assays: (i) hemifusion between cells labeled with membrane probe and content probe with unlabeled cells where hemifusion was detected as the appearance of lipid-labeled mononucleated cells without the content probe (FIG. 1A, FIG. 2A, FIG. 1E)); (ii) opening of a fusion pore in fusion between cells labeled with green cell tracker and cells labeled with orange cell tracker was detected as appearance of double-labeled cells (FIG. 1F); and (iii) fusion completion was detected as formation of multinucleated cells. […] Formation of multinucleated myotubes was quantified as the percentage of cell nuclei present in myotubes normalized to the total number of cell nuclei. Hemifusion and fusion pore opening were quantified as a number of double-labeled mononucleated cells normalized to the total number of cell nuclei in the field. For each condition, ≥8 randomly chosen fields of view were imaged. We also analyzed fusion by assessing the number of nuclei in myosin^+ cells. […] Samples were imaged with a Nikon Eclipse inverted microscope with AIR confocal running NIS Elements and images were analyzed with Fiji (SCHINDELIN et al. (2012) “Fiji: an open-source platform for biological-image analysis” Nat Methods, Vol. 9, pp. 676-682, which is herein incorporated by reference in its entirety) […]

Assay [2] deals with Myomaker^−/− C2C12 myoblasts. The assay is described as follows: Myoblast fusion assay (myosin+ cells, nuclei count), Myomaker-deficient myoblasts. It is filed as cell-based.
From the text: as §3

The subject of assay [3] is Myomerger^−/− C2C12 myoblasts. Kind of assay: Myoblast fusion assay (myosin+ cells, nuclei count), Myomerger-deficient myoblasts. The assay is classed as cell-based. From the text:
To specifically characterize different steps in fusion, we used 3 distinct assays: (i) hemifusion between cells labeled with membrane probe and content probe with unlabeled cells where hemifusion was detected as the appearance of lipid-labeled mononucleated cells without the content probe (FIG. 1A, FIG. 2A, FIG. 1E)); (ii) opening of a fusion pore in fusion between cells labeled with green cell tracker and cells labeled with orange cell tracker was detected as appearance of double-labeled cells (FIG. 1F); and (iii) fusion completion was detected as formation of multinucleated cells. […] Formation of multinucleated myotubes was quantified as the percentage of cell nuclei present in myotubes normalized to the total number of cell nuclei. Hemifusion and fusion pore opening were quantified as a number of double-labeled mononucleated cells normalized to the total number of cell nuclei in the field. For each condition, ≥8 randomly chosen fields of view were imaged. We also analyzed fusion by assessing the number of nuclei in myosin^+ cells. Here, cells were fixed with 4% paraformaldehyde (PFA)/PBS, permeabilized with 0.02% Triton X-100/PBS, and blocked with 3% BSA/PBS followed by immunostaining with myosin antibodies (MF 20, Developmental Studies Hybridoma Bank, 1:40) for one hour at room temperature. Alexa-Fluor secondary antibody (Invitrogen, 1:250) was incubated for 30 minutes at room temperature. Nuclei were stained with Hoechst (Invitrogen). Samples were imaged with a Nikon Eclipse inverted microscope with AIR confocal running NIS Elements and images were analyzed with Fiji (SCHINDELIN et al. (2012) “Fiji: an open-source platform for biological-image analysis” Nat Methods, Vol. 9, pp. 676-682, which is herein incorporated by reference in its entirety)
For detergent and recombinant protein application, 2.5×10^4 myoblasts per well of an 8-well μ-slide (Ibidi) were differentiated for 72 hours. 0.06% Octyl-β-Glucoside (OG) (Anatrace) in differentiation media was incubated for 30 minutes at 37° C. Cells were washed with PBS and switched back to normal differentiation media for 5 hours. For primary myoblasts, 3×10^4 cells were plated per well of an 8-well μ-slide (Ibidi) coated with fibronectin (Sigma-Aldrich, 5 μg/cm^2) and differentiated for 36 hours. Cells were treated with 0.06% OG in PBS for 30 minutes at 37° C., washed with PBS and switched back to normal differentiation media for 2 hours. For recombinant proteins, cells were treated with various concentrations of rMBP or rMBP-Myomerger^26-84 (0.5 μM, 1.25 μM, 3 μM, 6.25 μM and 12.5 μM), or 6.25 μM of Magainin 2 (AnaSpec), in differentiation media for 20 hours at 37° C.

For assay [4], the system named is mouse Red Blood Cells (RBCs). The assay is described as follows: Red blood cell hemolysis (spectrophotometer). It is filed as cell-based. The note with it: Myomerger ectodomain at 25 μM. The procedure:
Myomerger ectodomain (amino acids 26-84) was added to mouse Red Blood Cells (RBCs) and hemolysis was measured using a spectrophotometer (FIG. 9).

A further assay relates to primary myoblasts. Kind of assay: Myoblast fusion assay, Myomerger-deficient primary myoblasts. The assay is classed as cell-based, mouse. The settings on record: 0.06% OG in PBS 30 minutes.
From the text: as §3

Assay [5] relates to Escherichia coli (E. coli). Kind of assay: Bactericidal assay, colony forming units. It is filed as cell-based. The settings on record: 25 μM, 2 hours. The procedure:
(§4) Gram-positive bacteria Listeria monocytogenes (Lm) and gram-negative bacteria Escherichia coli (E. coli) were treated with 25 μM recombinant Myomerger ectodomain (labeled as “protein” in FIG. 8) for 2 hours.

Assay [6] deals with Listeria monocytogenes (Lm). Kind of assay: Bactericidal assay, colony forming units. The assay is classed as cell-based. The settings on record: 25 μM, 2 hours. The procedure:
as §4

[7] abbreviates: 6.25 μM Magainin 2, 20 hours on day 3 of differentiation.
Where [8] appears, read: 0.06% OG 30 minutes on day 3 of differentiation, fusion assessed 5 hours after treatment.

Method for Myomaker^−/− C2C12 cells: We labeled C2C12 cells 48 hours after placement in the differentiation medium, and co-plated differently labeled cells in a 1-to-1 ratio. […] Fusion was scored 30 min after LPC removal and thus −68 hours after placing the cells into differentiation medium. […] We kept the cells in LPC-supplemented differentiation medium for 16 hours, washed out LPC with LPC-free medium and 30 minutes later (˜24 hours after placing the cells into differentiation medium) scored fusion.
Formation of multinucleated myotubes was quantified as the percentage of cell nuclei present in myotubes normalized to the total number of cell nuclei. Hemifusion and fusion pore opening were quantified as a number of double-labeled mononucleated cells normalized to the total number of cell nuclei in the field. […]

`CN(C)CCCN1c2ccccc2Sc2ccc(Cl)cc21` [CPZ, chlorpromazine]: the “fusion (syncytium formation)” value in assay [1] is listed as “reached fusion levels observed for WT myoblasts”; in the assay with Myomaker^−/− C2C12 cells, “No fusion was observed”; in the assay with WT C2C12 myoblasts it was “little effect”.

Magainin 2 [Mag2]: the fusion result with C2C12 myoblasts (Mag2 treatment) is recorded as “did not have an effect”; in assay [2] (setting [7]), “had no effect”; in [3] (setting [7]), “partially rescued fusion; also recorded: induced myotube formation”. In addition, the “percentage of myosin+ cells with 3 or ≥4 nuclei” value in [3] (Mag2 treatment) is “increased the percentage of cells with 3 nuclei but also induced formation of myotubes with ≥4 nuclei”. The hemolysis result in assay [4] was “no measurable effect”.

With `CCCCCCCCO[C@@H]1O[C@H](CO)[C@@H](O)[C@H](O)[C@H]1O` [OG, Octyl-β-Glucoside], the fusion entry is recorded as “did not have an effect” with C2C12 myoblasts (OG treatment), “compensate for loss of Myomerger” in the assay with primary myoblasts, “did not fuse” in assay [2] (setting [8]) and “obvious fusion events; also recorded: induced fusion” in assay [3] (setting [8]). The “percentage of myosin+ cells with 3 or ≥4 nuclei” value in [3] (OG treatment) is given as “increased the percentage of cells with 3 nuclei but also induced formation of myotubes with ≥4 nuclei”.

B1: Myomerger ectodomain: recombinant Myomerger ectodomain (amino acids 26-84) used in Example Set B (protein)
chain: MPVPLLPMVLRSLLSRLLLPVARLARQHLLPLLRRLARRLSSQDMREALLSCLLFVLSQQQPPDSGEASRVDHSQRKERLGPQK
For B1, the “growth (colony forming units)” value in [5] and in assay [6] was “disrupts the growth” in each case. Besides, the “effect on Lm compared to E. coli” value in assay [6] (gram-positive vs gram-negative) was “more of an effect”. In assay [4], the hemolysis entry was “induced lysis”.
